Assay results from patent US20250197409A1, “BIFUNCTIONAL COMPOUND AND PHARMACEUTICAL COMPOSITION COMPRISING THE BIFUNCTIONAL COMPOUND, AND METHOD FOR TREATING ANDROGEN RECEPTOR RELATED DISEASE BY USING THE SAME” (ANHORN MEDICINES CO., LTD., priority 2022, published 2025).

Target: T1, androgen receptor (Homo sapiens, UniProt P10275, T878A)
T1 construct: host or cells: LNCaP.FGC
Test: Androgen receptor degradation assay using Western blot analysis
Format: cell-based
Conditions: for remaining activity at 0.1 µM: 24 h, read-out: Androgen Receptor Remaining (%), LNCaP.FGC cells, 100 nM, 24 hr, normalized to GAPDH, untreated cells = 100%; for DC50: read-out: AR DC50 (concentration needed for 50% AR degradation), LNCaP.FGC cells, serial 10x dilutions from 100 nM
Outline: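 LNCaP.FGC cells (2×10^5/well) treated with 10-fold serial dilutions in RPMI from 100 nM stock; untreated cells as negative control. AR Western signal normalized to GAPDH, expressed as % remaining versus untreated (100%). DC50 derived from calibration curve of serial dilutions.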

T1 sequence (P10275 whole entry T878A): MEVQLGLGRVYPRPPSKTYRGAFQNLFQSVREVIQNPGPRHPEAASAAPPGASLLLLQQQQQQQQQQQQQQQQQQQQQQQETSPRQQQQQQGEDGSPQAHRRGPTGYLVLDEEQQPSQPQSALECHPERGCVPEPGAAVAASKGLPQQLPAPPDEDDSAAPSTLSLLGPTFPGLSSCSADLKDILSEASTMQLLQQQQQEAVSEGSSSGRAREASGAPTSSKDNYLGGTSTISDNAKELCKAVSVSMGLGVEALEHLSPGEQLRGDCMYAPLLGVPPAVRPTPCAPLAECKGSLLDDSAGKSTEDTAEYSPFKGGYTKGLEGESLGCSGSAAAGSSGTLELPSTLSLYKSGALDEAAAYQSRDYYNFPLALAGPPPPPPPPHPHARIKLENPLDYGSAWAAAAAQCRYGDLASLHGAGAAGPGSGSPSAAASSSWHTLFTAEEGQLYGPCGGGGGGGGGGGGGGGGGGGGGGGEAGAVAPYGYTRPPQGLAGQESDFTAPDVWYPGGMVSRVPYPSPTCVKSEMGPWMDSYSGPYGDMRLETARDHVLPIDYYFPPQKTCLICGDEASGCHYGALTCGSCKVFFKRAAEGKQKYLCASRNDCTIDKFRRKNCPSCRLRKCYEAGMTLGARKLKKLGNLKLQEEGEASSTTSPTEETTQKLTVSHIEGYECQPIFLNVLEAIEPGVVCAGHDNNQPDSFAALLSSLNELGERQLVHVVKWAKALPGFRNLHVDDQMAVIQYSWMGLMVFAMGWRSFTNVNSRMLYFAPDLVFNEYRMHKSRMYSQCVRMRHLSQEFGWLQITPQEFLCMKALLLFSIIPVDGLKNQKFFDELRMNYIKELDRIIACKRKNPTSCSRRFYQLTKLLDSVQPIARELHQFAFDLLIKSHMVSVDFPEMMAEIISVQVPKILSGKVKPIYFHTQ
T1 sequence (Q96SW2 whole entry partner): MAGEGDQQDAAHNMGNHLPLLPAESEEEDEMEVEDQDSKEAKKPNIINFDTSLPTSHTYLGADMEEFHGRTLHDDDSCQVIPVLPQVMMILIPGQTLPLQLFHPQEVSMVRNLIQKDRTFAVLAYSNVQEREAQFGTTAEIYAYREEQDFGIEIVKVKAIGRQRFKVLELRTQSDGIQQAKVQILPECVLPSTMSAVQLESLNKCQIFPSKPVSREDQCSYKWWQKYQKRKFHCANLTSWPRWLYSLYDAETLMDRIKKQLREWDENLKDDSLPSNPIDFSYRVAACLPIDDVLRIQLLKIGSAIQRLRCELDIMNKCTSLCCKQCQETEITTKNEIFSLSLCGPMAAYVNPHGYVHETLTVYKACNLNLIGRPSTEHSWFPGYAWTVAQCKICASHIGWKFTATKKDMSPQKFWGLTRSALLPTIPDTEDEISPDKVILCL

Row | SMILES | remaining activity at 0.1 µM [%] | DC50 [nM]
1 | CCn1c2c(c3ccc(OCC(=O)N4CCN(c5ccc(C(=O)N[C@H]6CC[C@H](Oc7ccc(C#N)c(Cl)c7)CC6)nn5)CC4)cc31)C(=O)N(C1CCC(=O)NC1=O)C2=O (stereo partly drawn) [Compound 121] | 48 | 25 to 100
2 | CCn1c2c(c3ccc(OCC(=O)N4CCC5(CC4)CN(c4ccc(C(=O)N[C@H]6CC[C@H](Oc7ccc(C#N)c(Cl)c7)CC6)nn4)C5)cc31)C(=O)N(C1CCC(=O)N(CO)C1=O)C2=O (stereo partly drawn) [Compound 122] | 33 | > 100
3 | CCn1c2c(c3ccc(OCC(=O)N4CCC5(CC4)CN(c4ccc(C(=O)N[C@H]6CC[C@H](Oc7ccc(C#N)c(Cl)c7)CC6)nn4)C5)cc31)C(=O)N(C1CCC(=O)NC1=O)C2=O (stereo partly drawn) [Compound 123] | 33 | > 100
4 | CCn1c2c(c3ccc(OCC(=O)N4CCN(c5ccc(C(=O)N[C@H]6CC[C@H](N(C)c7ccc(C#N)c(Cl)c7)CC6)nn5)CC4)cc31)C(=O)N(C1CCC(=O)N(CO)C1=O)C2=O (stereo partly drawn) [Compound 124] | 57 | –
5 | CCn1c2c(c3ccc(OCC(=O)N4CCN(c5ccc(C(=O)N[C@H]6CC[C@H](N(C)c7ccc(C#N)c(Cl)c7)CC6)nn5)CC4)cc31)C(=O)N(C1CCC(=O)NC1=O)C2=O (stereo partly drawn) [Compound 125] | 57 | –
6 | CCn1c2c(c3ccc(OCC(=O)N4CC5(CCN(c6ccc(C(=O)N[C@H]7CC[C@H](Oc8ccc(C#N)c(Cl)c8)CC7)nn6)CC5)C4)cc31)C(=O)N(C1CCC(=O)N(CO)C1=O)C2=O (stereo partly drawn) [Compound 126] | 58 | –
7 | CCn1c2c(c3ccc(OCC(=O)N4CC5(CCN(c6ccc(C(=O)N[C@H]7CC[C@H](Oc8ccc(C#N)c(Cl)c8)CC7)nn6)CC5)C4)cc31)C(=O)N(C1CCC(=O)NC1=O)C2=O (stereo partly drawn) [Compound 127] | 58 | –
8 | CCn1c2c(c3ccc(OCC(=O)N4CCC5(CC4)CN(c4ccc(C(=O)N[C@H]6CC[C@H](N(C)c7ccc(C#N)c(Cl)c7)CC6)nn4)C5)cc31)C(=O)N(C1CCC(=O)N(CO)C1=O)C2=O (stereo partly drawn) [Compound 128] | 63 | –
9 | CCn1c2c(c3ccc(OCC(=O)N4CCC5(CC4)CN(c4ccc(C(=O)N[C@H]6CC[C@H](N(C)c7ccc(C#N)c(Cl)c7)CC6)nn4)C5)cc31)C(=O)N(C1CCC(=O)NC1=O)C2=O (stereo partly drawn) [Compound 129] | 63 | –
10 | CCn1c2c(c3ccc(OCC(=O)N4CCCN(c5ccc(C(=O)N[C@H]6CC[C@H](N(C)c7ccc(C#N)c(Cl)c7)CC6)nn5)CC4)cc31)C(=O)N(C1CCC(=O)N(CO)C1=O)C2=O (stereo partly drawn) [Compound 130] | 51 | –
11 | CCn1c2c(c3ccc(OCC(=O)N4CCCN(c5ccc(C(=O)N[C@H]6CC[C@H](N(C)c7ccc(C#N)c(Cl)c7)CC6)nn5)CC4)cc31)C(=O)N(C1CCC(=O)NC1=O)C2=O (stereo partly drawn) [Compound 131] | 51 | –
12 | CCn1c2c(c3ccc(OCCCN4CCC5(CCN(c6ccc(C(=O)N[C@H]7CC[C@H](Oc8ccc(C#N)c(Cl)c8)CC7)nn6)C5)C4)cc31)C(=O)N(C1CCC(=O)NC1=O)C2=O (stereo partly drawn) [Compound 132] | 7 | 10 to 25
13 | CCn1c2c(c3ccc(OCCN4CCC5(CCN(c6ccc(C(=O)N[C@H]7CC[C@H](Oc8ccc(C#N)c(Cl)c8)CC7)nn6)C5)C4)cc31)C(=O)N(C1CCC(=O)NC1=O)C2=O (stereo partly drawn) [Compound 133] | 1 | 10 to 25
14 | CCn1c2c(c3ccc(OCC(=O)N4CCC5(CCN(c6ccc(C(=O)N[C@H]7CC[C@H](Oc8ccc(C#N)c(Cl)c8)CC7)nn6)C5)C4)cc31)C(=O)N(C1CCC(=O)N(CO)C1=O)C2=O (stereo partly drawn) [Compound 135] | 17 | 25 to 100
15 | CCn1c2c(c3ccc(OCC(=O)N4CCC5(CCN(c6ccc(C(=O)N[C@H]7CC[C@H](Oc8ccc(C#N)c(Cl)c8)CC7)nn6)C5)C4)cc31)C(=O)N(C1CCC(=O)NC1=O)C2=O (stereo partly drawn) [Compound 136] | 17 | 25 to 100
16 | CCn1c2c(c3ccc(OCCOCC4CCN(c5ccc(C(=O)N[C@H]6CC[C@H](N(C)c7ccc(C#N)c(Cl)c7)CC6)nn5)CC4)cc31)C(=O)N(C1CCC(=O)NC1=O)C2=O (stereo partly drawn) [Compound 137] | 1 | 25 to 100
